{"source": "paper PMC5131310", "about": "“Discovery of piperonal-converting oxidase involved in the metabolism of a botanical aromatic aldehyde” (Scientific Reports, 2016)", "molecular_target": "T1, piperonal-converting enzyme (PceSML), FAD site on PceM (Burkholderia sp. CT39-3, UniProt A0A1L7N251)", "T1 construct": "same recombinant complex as P1 (N-terminal His tag on PceS, host Burkholderia sp. CT39-3); with Piperonal-converting enzyme large subunit (PceL); Piperonal-converting enzyme small subunit (PceS)", "T1 sequence (A0A1L7N251 1-334)": "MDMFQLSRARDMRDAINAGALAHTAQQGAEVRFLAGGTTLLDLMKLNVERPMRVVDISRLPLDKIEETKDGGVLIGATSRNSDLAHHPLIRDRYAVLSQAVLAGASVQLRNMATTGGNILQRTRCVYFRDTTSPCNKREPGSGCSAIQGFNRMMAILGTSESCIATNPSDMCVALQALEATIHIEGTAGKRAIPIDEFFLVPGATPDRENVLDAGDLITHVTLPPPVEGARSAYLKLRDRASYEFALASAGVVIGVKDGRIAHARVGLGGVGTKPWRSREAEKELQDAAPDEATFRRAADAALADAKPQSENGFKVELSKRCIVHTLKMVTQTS", "T1 sequence (A0A1L7N257 1-740 partner)": "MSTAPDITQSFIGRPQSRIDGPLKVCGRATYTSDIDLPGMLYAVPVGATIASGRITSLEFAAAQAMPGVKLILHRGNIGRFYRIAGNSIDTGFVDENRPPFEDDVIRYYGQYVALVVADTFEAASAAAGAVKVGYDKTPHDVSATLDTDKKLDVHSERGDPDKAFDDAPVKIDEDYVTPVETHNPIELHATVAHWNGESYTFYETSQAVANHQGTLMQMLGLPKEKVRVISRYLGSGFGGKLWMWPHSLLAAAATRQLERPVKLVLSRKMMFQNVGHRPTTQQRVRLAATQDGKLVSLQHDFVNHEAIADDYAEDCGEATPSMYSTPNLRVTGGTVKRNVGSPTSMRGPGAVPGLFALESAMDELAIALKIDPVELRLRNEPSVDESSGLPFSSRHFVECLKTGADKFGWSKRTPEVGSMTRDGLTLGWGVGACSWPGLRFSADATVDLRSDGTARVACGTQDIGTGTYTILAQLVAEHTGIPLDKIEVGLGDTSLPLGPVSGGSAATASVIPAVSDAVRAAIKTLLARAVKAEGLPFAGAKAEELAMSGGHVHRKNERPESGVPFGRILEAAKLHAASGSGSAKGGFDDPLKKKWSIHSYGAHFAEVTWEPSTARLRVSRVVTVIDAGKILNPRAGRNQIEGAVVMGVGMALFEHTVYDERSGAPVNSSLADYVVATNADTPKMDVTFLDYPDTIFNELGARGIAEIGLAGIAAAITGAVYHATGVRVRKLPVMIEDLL", "T1 sequence (A0A1L7N258 1-185 partner)": "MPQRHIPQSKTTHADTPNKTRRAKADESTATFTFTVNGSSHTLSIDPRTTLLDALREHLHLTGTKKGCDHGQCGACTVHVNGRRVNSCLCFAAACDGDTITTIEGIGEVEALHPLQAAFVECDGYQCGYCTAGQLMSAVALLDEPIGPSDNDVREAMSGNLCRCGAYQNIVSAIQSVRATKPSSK", "test": "HPLC of flavin released from purified enzyme by HClO4", "format": "binding", "settings": "as-purified cofactor", "data": [{"smiles": "Cc1cc2nc3c(=O)[nH]c(=O)nc-3n(C[C@H](O)[C@H](O)[C@H](O)COP(=O)(O)OP(=O)(O)OC[C@H]3O[C@@H](n4cnc5c(N)ncnc54)[C@H](O)[C@@H]3O)c2cc1C", "note": "[FAD]", "values": [{"measurement": "HPLC of flavin released from purified enzyme by HClO4", "value": "FAD was identified as the flavin cofactor (Fig. 3A)"}]}]}
